≈ marks a conversion by molar mass, not a printed value. Entries after “also recorded” stand apart in the source; their conditions may differ. Where two headings read alike, the source gives them in different places. Blank lines part the entries; values can stand above or below the molecule they belong to.
Key:
[1] = Thermal fragmentation / decomposition (thermogravimetric analysis, heating); format: physicochemical; conditions: for thermal conversion of spin-cast film to pentacene: heating amorphous thin films cast from toluene
Procedure: FIG. 2 presents thermogravimetric analysis curves for compounds 1 (blue) and 2 (red) at 10° C./min heating rate, assessing the carbon monoxide (CO) expulsion reaction, in which the carbonyl bridge is released from the precursor for conversion to pentacene.
Melting points were taken on a Fargo MP-2D melting-point apparatus and were not corrected. UV spectra were recorded on a Hewlett-Packard 8453 spectrophotometer. Infrared spectra were measured on a Perkin-Elmer L118-F000 FT-IR spectrometer as either thin film or solid dispersion in KBr. Nuclear magnetic resonance spectra were recorded on Bruker AC300 and AV500 super-conducting FT NMR spectrometers with all chemical shifts reported in ppm from tetramethylsilane as an internal standard. Mass spectra were obtained on a Joel JMS 700 double focusing spectrometer. Elemental analyses were performed on a Perkin-Elmer 2400 elemental analyzer. Thermal gravimetric analyses were measured on a Perkin-Elmer Pyris 1 thermogravimetric analyzer. Differential scanning calorimetry was done on a Perkin-Elmer DCS-7 instrument. Column chromatography was carried out using 230-400 mesh silica gel.

[2] = Stability on storage / at ambient conditions; format: physicochemical
[3] = Solubility in organic solvents; format: physicochemical; conditions: for solubility (comparison in words): organic solvents
[4] = organic solvents; cited from earlier work
[5] = heating; earlier reports; cited from earlier work
[6] = toluene, solutions for spin-casting
[7] = organic solvent or mixture, dichloromethane (DCM) and tetrahydrofuran (THF), read-out: solubility

SMILES: c1ccc2cc3cc4cc5ccccc5cc4cc3cc2c1 [pentacene]
temperature up to which stable ([1]; pentacene produced from compound 2, TGA): 300 °C

stability (in words) [2]: relatively low
SMILES: O=C1[C@@H]2C=C[C@@H]1c1cc3cc4cc5ccccc5cc4cc3cc12 [Compound 11]

decomposition temperature ([1]; anti isomer): 288 °C
decomposition temperature ([1]; syn isomer): 252 °C
solubility [3, 6]: good solubility
SMILES: COC1(OC)C2C=CC1c1cc3cc4cc5c(cc4cc3cc12)C1C=CC5C1(OC)OC [Compound 25]
thermal conversion of spin-cast film to pentacene [1]: did not yield either pentacene or 1,2,3,4,8,9,10,11-octachloropentacene

SMILES: C(=C\c1cccs1)/c1ccc2cc3cc(/C=C/c4cccs4)ccc3cc2c1 [Compound 36]
solubility [4]: undesirably low solubility

SMILES: c1ccc(-c2ccc3cc4cc(-c5ccccc5)ccc4cc3c2)cc1 [Compound 37]
solubility [4]: undesirably low solubility

SMILES: O=C1C2C=CC1c1cc3cc4cc5c(cc4cc3cc12)C1C=CC5C1=O [Compound 13]
stability (in words) [2]: cannot be isolated at ambient temperature; also recorded: relatively low

SMILES: C(=C\c1ccc2cc3cc(/C=C/c4ccccc4)ccc3cc2c1)/c1ccccc1 [Compound 38]
solubility [4]: undesirably low solubility

SMILES: C1=C[C@@H]2c3cc4cc5cc6c(cc5cc4cc3[C@@H]1[C@]21OCCO1)[C@H]1C=C[C@@H]6[C@]12OCCO2 [Compound 16]
fragmentation / dissociation temperature of ethylene ketal (CO2 and ethylene released) ([1]; TGA): about 225 °C

stability (in words) [2]: relatively low
SMILES: O=C1C2C=CC1c1cc3c(cc12)[C@H]1C(=O)[C@H]3c2cc3c(cc21)C1C=C[C@H]3C1=O [Compound 14]

decomposition temperature ([1]; anti isomer): 297 °C
decomposition temperature ([1]; syn isomer): 271 °C
solubility [3, 6]: good solubility
SMILES: COC1(OC)C2(Cl)C(Cl)=C(Cl)C1(Cl)c1cc3cc4cc5c(cc4cc3cc12)C1(Cl)C(Cl)=C(Cl)C5(Cl)C1(OC)OC [Compound 23]
thermal conversion of spin-cast film to pentacene [1]: did not yield either pentacene or 1,2,3,4,8,9,10,11-octachloropentacene

weight loss ([1]; thermogravimetric curve, corresponds to a CO unit): 10%
stability (in words) [2]: stable at ambient temperature
solubility [3, 7]: ~700 µg/mL (≈ 2280 µM)
solubility (comparison in words) [3]: better than compound 1
SMILES: O=C1[C@@H]2c3ccccc3[C@@H]1c1cc3cc4ccccc4cc3cc12 [Compound 2]
temperature of CO extrusion to pentacene [5]: 128 °C

SMILES: O=C1C2C=CC1c1cc3cc4cc5c(cc4cc3cc12)C1C=CC5C1=O [Compound 13A]
stability (in words) [2]: decomposed readily at ambient conditions; also recorded: not stable enough to sustain at ambient conditions

temperature at which CO expulsion / decomposition starts ([1]; TGA, 10° C./min heating rate): 150 °C
solubility [3, 7]: ~700 µg/mL (≈ 2280 µM)
SMILES: O=C1[C@H]2c3cc4ccccc4cc3[C@H]1c1cc3ccccc3cc12 [Compound 1, reference compound]
temperature of CO extrusion to pentacene [5]: 150 °C

SMILES: O=C1C2c3ccccc3[C@@H]1c1cc3c(cc12)[C@@H]1C(=O)[C@@H]3c2ccccc21 [Compound 12]
stability (in words) [2]: stable at low temperature for a long period of time; also recorded: can be kept at −10 °C for an extended period of time
solubility (comparison in words) [3]: higher solubility than either compound 1 or 2

SMILES: c1csc(-c2ccc3cc4cc(-c5cccs5)ccc4cc3c2)c1 [Compound 35]
solubility [4]: undesirably low solubility

— patent US9034439B2, “Synthesis and applications of soluble pentacene precursors and related compounds” (Academia Sinica, priority 2008, dated 2015)
